What all share (experiment): inhibition of tumour cell growth, NCI panel, 48 h
For test [1], the system named is A498.
Test [2] relates to CAKI-1.
Test [3] relates to COLO 205.
The subject of test [4] is HCT-116.
Test [5] has as its system HCT-15.
The subject of test [6] is HOP-62.
Test [7] relates to HOP-92.
For test [8], the system named is IGROV-1.
The subject of test [9] is M14.
Test [10] relates to MCF7.
Test [11] has as its system MDA-MB-231.
The subject of test [12] is NCI-H522.
For test [13], the system named is OVCAR-4.
Test [14] relates to OVCAR-8.
Test [15] deals with RPMI-8226.
Test [16] relates to SF-268.
For test [17], the system named is SK-MEL-5.
For test [18], the system named is SR.
Test [19] concerns UACC-257.

Here are results for 11 molecules from ChEMBL document CHEMBL1201862, “PubChem BioAssay data set” (2004).

Where “and” joins values, the source holds several entries; their conditions need not be identical. Equal values may be shown once.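 These data come from cells grown in 96-well plates and exposed to compound for 48 hours at five concentrations. GI50 is the concentration that inhibits growth by half.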 Calls of active or inactive are those of the source. Rule as the data show it: active = GI50 up to about 1.1 µM and inactive = higher.

With `Cn1c2c(c3c(=O)[nH]ncc31)CCc1ccccc1-2`, the GI50 was 16.3 µM (inactive) in test [1]; 32.1 µM (inactive) in test [2]; 30 µM (inactive) in test [3]; 20.1 µM (inactive) in test [4]; 24.8 µM in [5]; 78.5 µM (inactive) in test [6]. The GI50 was 44.8 µM (inactive) in [7]; 19 µM (inactive) in test [8]; 18.6 µM (inactive) in [9]; 21.6 µM (inactive) in test [10]; 21.1 µM (inactive) in test [11]; 42.5 µM (inactive) in test [12]. Also, the GI50 in test [13] is 44.7 µM (inactive); in [14], 57.3 µM (inactive); in [15] it was 25.5 µM (inactive); in [16] it was 31.2 µM (inactive); in test [17], 17.8 µM (inactive); in [18], 20.5 µM (inactive). For the same molecule, the GI50 in test [19] was 17.9 µM (inactive).

`O=C1C2C(c3ccccc3)NC(c3ccccc3)C1C(c1ccccc1)NC2c1ccccc1` (stereo not given): the GI50 in test [1] was > 100 µM (inactive); in [2], > 100 µM (inactive); in test [3], > 100 µM (inactive); in [4], > 100 µM (inactive); in [5], more than 100 µM; in test [6] it was > 100 µM (inactive). The GI50 in test [7], in test [8], in test [9], in [10], in test [11] and in [12] was > 100 µM (inactive) in each case. Further, the GI50 in test [13], in test [14], in [15], in [16], in test [17] and in test [18] was > 100 µM (inactive) in each case. Moreover, in test [19], the GI50 was > 100 µM (inactive).

Consider `Cc1ccc(/C=C2/N/C(=N\N=C/C(O)C(O)C(O)CO)NC2=O)cc1` (stereo not given), for which the GI50 in test [1] is > 100 µM (inactive); in test [2] it was > 100 µM (inactive); in [3] it was > 100 µM (inactive); in test [4], > 100 µM (inactive); in test [5], 89.9 µM and 79.1 µM; in test [6], > 100 µM (inactive). For the same molecule, the GI50 was > 100 µM (inactive) in test [7]; > 100 µM (inactive) in test [8]; > 100 µM (inactive) in test [9]; > 100 µM (inactive) in [10]; > 100 µM (inactive) in [11]; 71.6 µM (inactive) in test [12]. Moreover, the GI50 in [13] was 33.1 µM (inactive) and 35.8 µM (inactive); in test [14], > 100 µM (inactive); in test [15] it was > 100 µM (inactive); in test [16] it was > 100 µM (inactive); in test [17], > 100 µM (inactive); in test [18] it was > 100 µM (inactive). In [19], the GI50 is > 100 µM (inactive).

For the molecule `O=c1c2ncn(C3CC(O)C(CO)O3)c2nnn1Cc1ccccc1[N+](=O)[O-]` (stereo not given), the GI50 is > 100 µM (inactive) in [1]; > 100 µM (inactive) in test [2]; > 100 µM (inactive) in test [3]; > 100 µM (inactive) in test [4]; more than 100 µM in [5]; > 100 µM (inactive) in test [6]. Further, the GI50 was 57.8 µM (inactive) in test [7]; > 100 µM (inactive) in test [8]; > 100 µM (inactive) in [9]; > 100 µM (inactive) in test [10]; > 100 µM (inactive) in [11]; > 100 µM (inactive) in test [12]. Moreover, the GI50 was > 100 µM (inactive) in test [13]; > 100 µM (inactive) in [14]; > 100 µM (inactive) in test [15]; > 100 µM (inactive) in test [16]; > 100 µM (inactive) in test [17]; 3.13 µM (inactive) in [18]. Also, in [19], the GI50 was > 100 µM (inactive).

For the molecule `C=CC(C)(C)n1cc(C2=C(O)C(=O)C(c3cn(C(C)(C)C=C)c4ccccc34)=C(O)C2=O)c2ccccc21`, the GI50 in [1] was 5.97 µM (inactive); in [2], 2.34 µM (inactive); in test [3], 9.14 µM (inactive); in [4] it was 3.27 µM (inactive); in test [5] it was 1.75 µM; in test [6] it was 2.32 µM (inactive). For the same molecule, the GI50 in test [7] is 3.34 µM (inactive); in test [8] it was 2.7 µM (inactive); in [9] it was 2.71 µM (inactive); in [10], 3.48 µM (inactive); in [11] it was 3.71 µM (inactive); in [12], 2.53 µM (inactive). The GI50 in test [13] was 1.76 µM (inactive); in test [14], 2.11 µM (inactive); in test [15] it was 4.44 µM (inactive); in test [16], 2.19 µM (inactive); in test [17], 2.08 µM (inactive); in test [18], 3.57 µM (inactive). Further, in [19], the GI50 was 2.9 µM (inactive).

For the molecule `O=C1CCC(c2ccccc2)(c2ccccc2)CC1`, the GI50 is > 100 µM (inactive) in test [1]; > 100 µM (inactive) in [2]; 27.9 µM (inactive) in test [3]; 41.3 µM (inactive) in [4]; 47.4 µM in test [5]; > 100 µM (inactive) in test [6]. Further, the GI50 was > 100 µM (inactive) in test [7]; > 100 µM (inactive) in test [8]; 65.8 µM (inactive) in test [9]; 46 µM (inactive) in test [10]; > 100 µM (inactive) in test [11]; 71.3 µM (inactive) in test [12]. Besides, the GI50 in [13] was > 100 µM (inactive); in test [14] it was > 100 µM (inactive); in test [15] it was 30.7 µM (inactive); in test [16], > 100 µM (inactive); in test [17] it was 30.7 µM (inactive); in test [18], 37.8 µM (inactive). The GI50 in test [19] was > 100 µM (inactive).

With `CN1CCN(c2ccc3[nH]c(-c4ccc5[nH]c(CCCc6ccc(N(CCCl)CCCl)cc6)nc5c4)nc3c2)CC1`, the GI50 in test [1] is > 100 µM (inactive); in test [2], > 100 µM (inactive); in [3] it was > 100 µM (inactive); in test [4], > 100 µM (inactive); in test [5], more than 100 µM; in test [6], > 100 µM (inactive). In addition, the GI50 in test [7] is > 100 µM (inactive); in [8], 13.5 µM (inactive); in test [9] it was > 100 µM (inactive); in [10], 64.3 µM (inactive); in test [11] it was > 100 µM (inactive); in test [12] it was > 100 µM (inactive). Further, the GI50 in test [13] was > 100 µM (inactive); in test [14] it was > 100 µM (inactive); in [15], > 100 µM (inactive); in test [16] it was > 100 µM (inactive); in [17], > 100 µM (inactive); in [18] it was 96.2 µM (inactive). Moreover, in [19], the GI50 is > 100 µM (inactive).

Turning to `CC(C)C(C/C=C1\CC(CO)(COC(=O)C2CCCCC2)OC1=O)C(C)C` (stereo not given), the GI50 was 44.8 µM (inactive) in test [1]; 18.7 µM (inactive) in [2]; 10.3 µM (inactive) in [3]; 19.2 µM (inactive) in test [4]; 21.7 µM in [5]; 13.2 µM (inactive) in test [6]. Besides, the GI50 in test [7] was 16.9 µM (inactive); in [8] it was 22.9 µM (inactive); in [9] it was 21.8 µM (inactive); in test [10] it was 21.2 µM (inactive); in test [11], 16.8 µM (inactive); in [12], 16.5 µM (inactive). For the same molecule, the GI50 in test [13] was 18 µM (inactive); in [14] it was 18.7 µM (inactive); in test [16], 17.7 µM (inactive); in [17] it was 31.6 µM (inactive); in [18], 27 µM (inactive); in [19], 32.2 µM (inactive).

Take `O=C(O)c1ccc(C2SCc3nc4ccccc4n32)cc1` (stereo not given): the GI50 in test [1] is > 100 µM (inactive); in test [2], > 100 µM (inactive); in test [4], > 100 µM (inactive); in [5], more than 100 µM; in test [6], > 100 µM (inactive); in test [7], > 100 µM (inactive). Besides, the GI50 in test [8], in test [9], in test [10], in [11], in test [12] and in test [13] was > 100 µM (inactive) in each case. Also, the GI50 in test [14], in [15], in test [16], in test [17], in [18] and in test [19] was > 100 µM (inactive) throughout.

Turning to `O=C(c1cc(Cl)ccc1Cl)N1CCN(c2ccc(Cl)c(Cl)c2)CC1`, the GI50 in test [1] is 11.5 µM (inactive); in [2] it was 35.8 µM (inactive); in [4], 21 µM (inactive); in [5], 13.2 µM; in test [6], 67.5 µM (inactive); in [7], 54.2 µM (inactive). The GI50 is 39.4 µM (inactive) in [8]; > 10 µM (inactive) in test [9]; 8.67 µM (inactive) in [10]; 29.1 µM (inactive) in test [11]; 20.7 µM (inactive) in [12]; 51.5 µM (inactive) in [13]. Further, the GI50 in [14] was 12.5 µM (inactive); in test [15], 74.6 µM (inactive); in test [16], 47.2 µM (inactive); in test [17], 14.6 µM (inactive); in test [18], 34.9 µM (inactive); in [19], 29.9 µM (inactive).

In the case of `Cc1nc2c(Cl)cc(Cl)cc2c2c1CCO2`, the GI50 was 67.1 µM (inactive) in test [1]; 23.3 µM (inactive) in [2]; > 100 µM (inactive) in [3]; > 100 µM (inactive) in test [4]; more than 100 µM in test [5]; 73.1 µM (inactive) in test [7]. Further, the GI50 in [8], in test [9], in test [10], in test [11], in test [12] and in test [13] was > 100 µM (inactive) in each case. The GI50 in test [14], in test [15], in [16], in test [17], in [18] and in test [19] was > 100 µM (inactive) each time.
